System: LG0567-F671-PDC complex spheroids viability
Assay: Anticancer human tumor LG0567-F671-PDC patient-derived lung adenocarcinoma cell line growth inhibition [RAS]
Settings: for IC50: curve of first compound; for viability, T/C: stronger effect = lower value
Summary of the method: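 Multi-cell-type spheroids: tumor cells plus HUVEC endothelial cells and mesenchymal stem cells. RAS-pathway inhibitors were combined with targeted agents, each dosed in half-log steps down from clinical Cmax, or from 10 microM when Cmax was unknown.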

[1] = second compound 0.000949 µM, first compound 0.0316 µM
[2] = second compound 0.000949 µM, first compound 0.1 µM
[3] = second compound 0.000949 µM, first compound 0.316 µM
[4] = second compound 0.000949 µM, first compound 1 µM
[5] = second compound 0.000949 µM, first compound 3.16 µM
[6] = second compound 0.000949 µM, first compound 10 µM
[7] = second compound 0.003 µM, first compound 0.0316 µM
[8] = second compound 0.003 µM, first compound 0.1 µM
[9] = second compound 0.003 µM, first compound 0.316 µM
[10] = second compound 0.003 µM, first compound 1 µM
[11] = second compound 0.003 µM, first compound 3.16 µM
[12] = second compound 0.003 µM, first compound 10 µM
[13] = second compound 0.00949 µM, first compound 0.0316 µM
[14] = second compound 0.00949 µM, first compound 0.1 µM
[15] = second compound 0.00949 µM, first compound 0.316 µM
[16] = second compound 0.00949 µM, first compound 1 µM
[17] = second compound 0.00949 µM, first compound 3.16 µM
[18] = second compound 0.00949 µM, first compound 10 µM
[19] = second compound 0.03 µM, first compound 0.0316 µM
[20] = second compound 0.03 µM, first compound 0.1 µM
[21] = second compound 0.03 µM, first compound 0.316 µM
[22] = second compound 0.03 µM, first compound 1 µM
[23] = second compound 0.03 µM, first compound 3.16 µM
[24] = second compound 0.03 µM, first compound 10 µM
[25] = second compound 0.0949 µM, first compound 0.0316 µM
[26] = second compound 0.0949 µM, first compound 0.1 µM
[27] = second compound 0.0949 µM, first compound 0.316 µM
[28] = second compound 0.0949 µM, first compound 1 µM
[29] = second compound 0.0949 µM, first compound 3.16 µM
[30] = second compound 0.0949 µM, first compound 10 µM
[31] = second compound 0.3 µM, first compound 0.0316 µM
[32] = second compound 0.3 µM, first compound 0.1 µM
[33] = second compound 0.3 µM, first compound 0.316 µM
[34] = second compound 0.3 µM, first compound 1 µM
[35] = second compound 0.3 µM, first compound 3.16 µM
[36] = second compound 0.3 µM, first compound 10 µM
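Note: spheroids exposed to compound for seven days before readout.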
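Throughout, for IC50: luminescence signal used as a proxy for viable cells.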

## Cc1nc(N2CCC3(CC2)COC(C)C3N)c(CO)nc1Sc1ccnc(N)c1Cl (stereo unspecified) + CCn1c(-c2cc(N3CCN(C)CC3)cnc2C(C)OC)c2c3cc(ccc31)-c1csc(n1)CC(NC(=O)C1CC1C)C(=O)N1CCCC(N1)C(=O)OCC(C)(C)C2
Second compound 0.000949 µM
  IC50: < 31.6 nM
Second compound 0.003 µM
  IC50: < 31.6 nM
Second compound 0.00949 µM
  IC50: < 31.6 nM
Second compound 0.03 µM
  IC50: < 31.6 nM
Second compound 0.0949 µM
  IC50: < 31.6 nM
Second compound 0.3 µM
  IC50: < 31.6 nM
[1]
  viability, T/C: 13.4%
[2]
  viability, T/C: 9.61%
[3]
  viability, T/C: 5.09%
[4]
  viability, T/C: 3.4%
[5]
  viability, T/C: 2.1%
[6]
  viability, T/C: 1.79%
[7]
  viability, T/C: 6.69%
[8]
  viability, T/C: 5.75%
[9]
  viability, T/C: 2.58%
[10]
  viability, T/C: 2.04%
[11]
  viability, T/C: 1.52%
[12]
  viability, T/C: 1.27%
[13]
  viability, T/C: 3.68%
[14]
  viability, T/C: 3.22%
[15]
  viability, T/C: 1.87%
[16]
  viability, T/C: 1.37%
[17]
  viability, T/C: 1.14%
[18]
  viability, T/C: 1.07%
[19]
  viability, T/C: 2.35%
[20]
  viability, T/C: 1.85%
[21]
  viability, T/C: 1.58%
[22]
  viability, T/C: 1.41%
[23]
  viability, T/C: 1.06%
[24]
  viability, T/C: 0.91%
[25]
  viability, T/C: 2.09%
[26]
  viability, T/C: 1.47%
[27]
  viability, T/C: 1.37%
[28]
  viability, T/C: 0.88%
[29]
  viability, T/C: 0.94%
[30]
  viability, T/C: 0.69%
[31]
  viability, T/C: 1.86%
[32]
  viability, T/C: 1.2%
[33]
  viability, T/C: 0.98%
[34]
  viability, T/C: 0.98%
[35]
  viability, T/C: 0.68%
[36]
  viability, T/C: 0.66%

## NC1c2ccccc2OC12CCN(c1cnc3c(N4CCCc5ncccc54)n[nH]c3n1)CC2 (stereo unspecified) + CCn1c(-c2cc(N3CCN(C)CC3)cnc2C(C)OC)c2c3cc(ccc31)-c1csc(n1)CC(NC(=O)C1CC1C)C(=O)N1CCCC(N1)C(=O)OCC(C)(C)C2
Second compound 0.000949 µM
  IC50: < 31.6 nM
Second compound 0.003 µM
  IC50: < 31.6 nM
Second compound 0.00949 µM
  IC50: < 31.6 nM
Second compound 0.03 µM
  IC50: < 31.6 nM
Second compound 0.0949 µM
  IC50: < 31.6 nM
Second compound 0.3 µM
  IC50: < 31.6 nM
[1]
  viability, T/C: 6.06%
[2]
  viability, T/C: 4.3%
[3]
  viability, T/C: 2.12%
[4]
  viability, T/C: 1.95%
[5]
  viability, T/C: 1.97%
[6]
  viability, T/C: 1.51%
[7]
  viability, T/C: 3.74%
[8]
  viability, T/C: 2.3%
[9]
  viability, T/C: 1.62%
[10]
  viability, T/C: 1.58%
[11]
  viability, T/C: 1.33%
[12]
  viability, T/C: 1.84%
[13]
  viability, T/C: 2.32%
[14]
  viability, T/C: 1.6%
[15]
  viability, T/C: 1.26%
[16]
  viability, T/C: 0.84%
[17]
  viability, T/C: 1.05%
[18]
  viability, T/C: 1.1%
[19]
  viability, T/C: 1.64%
[20]
  viability, T/C: 1.27%
[21]
  viability, T/C: 1.19%
[22]
  viability, T/C: 0.92%
[23]
  viability, T/C: 1.02%
[24]
  viability, T/C: 0.81%
[25]
  viability, T/C: 1.33%
[26]
  viability, T/C: 1.55%
[27]
  viability, T/C: 0.92%
[28]
  viability, T/C: 0.69%
[29]
  viability, T/C: 0.98%
[30]
  viability, T/C: 0.76%
[31]
  viability, T/C: 1.37%
[32]
  viability, T/C: 1.39%
[33]
  viability, T/C: 0.9%
[34]
  viability, T/C: 0.72%
[35]
  viability, T/C: 0.85%
[36]
  viability, T/C: 0.72%

## Nc1ccn(C2OC(CO)C(O)C2(F)F)c(=O)n1 (stereo unspecified) + CCn1c(-c2cc(N3CCN(C)CC3)cnc2C(C)OC)c2c3cc(ccc31)-c1csc(n1)CC(NC(=O)C1CC1C)C(=O)N1CCCC(N1)C(=O)OCC(C)(C)C2
Second compound 0.000949 µM
  IC50: < 3.16 nM
Second compound 0.003 µM
  IC50: < 3.16 nM
Second compound 0.00949 µM
  IC50: < 3.16 nM
Second compound 0.03 µM
  IC50: < 3.16 nM
Second compound 0.0949 µM
  IC50: < 3.16 nM
Second compound 0.3 µM
  IC50: < 3.16 nM
Second compound 0.000949 µM, first compound 0.00316 µM
  viability, T/C: 23.8%
Second compound 0.000949 µM, first compound 0.01 µM
  viability, T/C: 22.4%
[1]
  viability, T/C: 22.1%
[2]
  viability, T/C: 22.6%
[3]
  viability, T/C: 20.7%
[4]
  viability, T/C: 22%
Second compound 0.003 µM, first compound 0.00316 µM
  viability, T/C: 11%
Second compound 0.003 µM, first compound 0.01 µM
  viability, T/C: 10.7%
[7]
  viability, T/C: 10.6%
[8]
  viability, T/C: 8.86%
[9]
  viability, T/C: 11.5%
[10]
  viability, T/C: 12.4%
Second compound 0.00949 µM, first compound 0.00316 µM
  viability, T/C: 6.32%
Second compound 0.00949 µM, first compound 0.01 µM
  viability, T/C: 6.32%
[13]
  viability, T/C: 6.59%
[14]
  viability, T/C: 6.78%
[15]
  viability, T/C: 6.01%
[16]
  viability, T/C: 7.27%
Second compound 0.03 µM, first compound 0.00316 µM
  viability, T/C: 6.63%
Second compound 0.03 µM, first compound 0.01 µM
  viability, T/C: 4.5%
[19]
  viability, T/C: 4.58%
[20]
  viability, T/C: 4.82%
[21]
  viability, T/C: 5.13%
[22]
  viability, T/C: 5.29%
Second compound 0.0949 µM, first compound 0.00316 µM
  viability, T/C: 3.22%
Second compound 0.0949 µM, first compound 0.01 µM
  viability, T/C: 3.54%
[25]
  viability, T/C: 3.82%
[26]
  viability, T/C: 3.99%
[27]
  viability, T/C: 4.28%
[28]
  viability, T/C: 5.17%
Second compound 0.3 µM, first compound 0.00316 µM
  viability, T/C: 2.59%
Second compound 0.3 µM, first compound 0.01 µM
  viability, T/C: 2.74%
[31]
  viability, T/C: 3.25%
[32]
  viability, T/C: 3.47%
[33]
  viability, T/C: 4.08%
[34]
  viability, T/C: 3.48%

— PubChem BioAssay AID2060889 (Molecular Pharmacology Branch, DTP, NCI, 2025)
